Source: patent publication US7390836B2, “Small molecules used to increase cell death” (priority 1999, dated 2008)
Where two headings read alike, the source gives them in different places. Peptide text beside a SMILES is read from it. * marks the point of attachment. Cbz = O=C(OCc1ccccc1)*; CH2F = FC*

Columns and labels:
[1] = test system: Bak BH3 peptide / Bcl-xL (Bcl-xL/GST, Bcl-xL-His6) interaction; assay: Fluorescence polarization assay, labeled Bak BH3 peptide binding to Bcl-xL fusion protein; settings: for order of affinities of BH3Is: overall rank order from FP, NMR, pulldown and SELDI results; for order of decreasing affinity, fluorescence polarization assays: rank order
Description: We have used a fluorescence polarization assay to screen a library of 16,000 chemical compounds (ChemBridge, San Diego, Calif.) to identify small molecules that inhibit the interaction between a peptide corresponding to the BH3 domain of a pro-apoptotic protein and a recombinant Bcl-xL/GST fusion protein. In this assay, an […] peptide corresponding to the BH3 domain of Bak was used. The Bak peptide was labeled with a fluorescent tag, such as OREGON GREEN. Upon binding of the tagged peptide to the Bcl-xL/GST fusion protein, the polarization of light emitted by the tagged peptide is altered. […] Conversely, in a sample in which a compound does inhibit the interaction between the Bak peptide and the Bcl-xL/GST fusion protein the polarization of light emitted by the peptide will not be altered.
A nineteen amino acid Bak peptide, corresponding to the BH3 domain of Bak, with the sequence […] (SEQ ID NO: 2) was labeled with the fluorophore OREGON GREEN according to the manufacturer's instructions (Molecular Probes, Eugene, Oreg.). In addition, a recombinant Bcl-xL/GST fusion protein was generated using conventional techniques known to those skilled in the fields of biochemistry and molecular biology. The interaction between the Bak peptide and the Bcl-xL/GST fusion protein was confirmed.
A screen of approximately 16,000 compounds from the ChemBridge chemical compound library was conducted to identify compounds that disrupt the interaction between the Bak peptide and the Bcl-xL/GST fusion protein. The ability of a compound to disrupt the interaction between the two polypeptides was assessed using a fluorescence polarization assay. The Bak peptide and Bcl-xL/GST fusion protein (15 nM each; dissolved in PBS) were first combined, and then the compound was added. Alternatively, the Bak peptide, Bcl-xL/GST fusion protein, and test compound (5 mg/ml; dissolved in 0.1-0.5 gl of DMSO) may be combined in any order. Normally the unbound Bak polypeptide results in polarization of approximately 40 mP units. Upon binding of the Bcl-xL/GST fusion protein, polarization increased to approximately 100-120 mP units.
In a preferred method, the fluorescence assay was carried out as follows. Bak BH3 peptide (Research Genetics) was labeled using NHS-OREGON GREEN (Molecular Probes) and purified by HPLC. For the initial screening assays, 33 nM of labeled BH3 peptide, 2 μM of GST-Bcl-xL protein, 0.1% bovine gamma globulin (BGG, Sigma) and 1 mM DTT mixed with PBS, pH 7.2 (Gibco) were added into 384 well black plates (Lab Systems) using MULTIDROP (Lab Systems). Small molecules (5 mg/ml in DMSO, ChemBridge) were transferred using plastic 384-pin arrays (Genetix). The plates were incubated for 1-2 hr at 25° C., and the fluorescence polarization assay values were determined using an Analyst plate reader (LJL Biosystems). Reactions containing 16.65 nM of labeled BH3 peptide and 4.2 μM of Bcl-xL-His6 fusion protein, which was previously utilized to characterize BH3/Bcl-xL binding (Sattler et al., Science 275:983-6, 1997) were used for the further fluorescence polarization analyses. Kd and Ki determination was performed as previously described using […] PRISM software package (GraphPad) (Dandliker et al., Methods Enzymol. 74:3-28,1981).
In a further screen, various concentrations of each of the above-identified compounds were evaluated for their potency. A serial dilution of each chemical compound was performed and the fluorescence polarization assay was repeated, as per the primary screen. As a result of the secondary screening, three compounds, chemical compound ID numbers 275805 (BH3I-1; FIG. 1), 282986 (BH3I-1′; FIG. 2), and 175362 (BH3I-2; FIG. 3), collectively termed “BH3Is,” were identified to disrupt the interaction between Bak and the BCL-xL/GST fusion protein. […] Additional homologues of the BH3I-1s (BH3I-1″ and BH3I-1′″) and BH3I-2 (BH3-2″ and BH3I-2″) were also analyzed in the study (FIG. 4). […]

Bcl-xL = target: T1, Bcl-xL (Homo sapiens, UniProt Q07817, DEL45-84); assay: NMR titration of Bcl-xL; type: binding; settings: rank order
T1 construct: His6 (C); made in house
T1 sequence (Q07817 with tags, fused parts or gaps DEL45-84 limits assumed): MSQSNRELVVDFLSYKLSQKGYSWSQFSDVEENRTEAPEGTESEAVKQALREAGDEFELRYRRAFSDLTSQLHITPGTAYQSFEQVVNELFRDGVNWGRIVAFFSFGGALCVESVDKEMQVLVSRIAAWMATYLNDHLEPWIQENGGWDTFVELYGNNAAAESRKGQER
Procedure: To verify this conclusion, NMR titrations of Bcl-xL with BH3I-1s were performed and their Ki values were determined (FIG. 4). […] The BH3I-1s Ki values obtained by the NMR approach agree with the results of both pulldown and SELDI analyses. Therefore, the order of affinities of BH3Is is: BH312′>BH3I-2>BH3I-2″>BH3I-1>BH3I-1′>BH3I-1″>BH3I-1′″.
NMR titration was used to examine whether BH3Iinteracts with the binding pocket of Bcl-xL in a manner similar to Bak BH3 peptide (Hajduk et al., Science 278:497-499, 1997).
Next, changes in Bcl-xL structure upon addition of increasing amounts of BH3Is were determined. Each of the BH3Is induced significant changes in the Bcl-xL structure. The compounds targeted the hydrophobic cleft formed by the BH1, BH2, and BH3 domains on the surface of the Bcl-xL protein, and primarily bound to the area formed by BH1 and BH2 domains.

HeLa cells = assay: Cell death by ATP levels after zVAD-fmk pretreatment; type: cell-based; settings: zVAD-fmk 100 μM pretreatment, 48 or 72 hours
Procedure: The conditions under which cell death occurs in the presence of BH3Is were further evaluated. HeLa cells were pretreated with zVAD-fmk (100 μM) for 1 hour. The purpose of such a treatment was to inhibit the intracellular pathways mediating cell death by apoptosis. Each of the chemical compounds BH3I-1, BH3I-1′, or BH3I-2 was then added to the media of the cells of three separate samples. After 48 or 72 hours of exposure of the cells to zVAD-fmk and the chemical compound, the level of cell death was measured for each sample, by measuring cellular ATP levels.

[2] = test system: HeLa cells that stably overexpress human BCL-XL; assay: Cell death by ATP levels in Bcl-xL overexpressing cells after zVAD-fmk pretreatment; type: cell-based; settings: zVAD-fmk 100 μM pretreatment, 48 or 72 hours
Procedure: In another study, HeLa cells that stably overexpress human BCL-XL, and are therefore more resistant to cell death, were pretreated with zVAD-fmk (100 μM) for 1 hour, as described above. Each of the chemical compounds BH3I-1, BH3I-1′, and BH3I-2 from the ChemBridge library was then added to the media of the cells of three separate samples. After 48 or 72 hours of exposure of the cells to zVAD-fmk and the chemical compound, the level of cell death was measured for each sample, by measuring cellular ATP levels.

Jurkat cells = assay: Cytotoxicity by MTS assay and propidium iodide uptake; type: cell-based
Procedure: Since BH3Is induce apoptosis, their mode of action, for example, through disruption of BH3 domain interactions, was investigated next. If apoptosis induced by a BH3I is BH3-dependent, then cytotoxicity should correlate with the compound's ability to disrupt BH3 domain interactions in vitro. To examine this possibility, Jurkat cells were treated with the BH3 Is and the occurrence of cell death was assayed by the MTS assay and propidium iodide (PI) uptake (FIG. 7A). The cytotoxicity of BH3-Is followed the order of BH3I-2′>BH3I-2>BH3I-2″>BH3I-1>BH3I-1′>BH3I-1″>BH3I-1′″ which paralleled the order of their Ki values determined using in vitro Bcl-xL binding assays (FIGS. 7B and 7C). Similar data were obtained using a trypan blue exclusion assay.

HeLa cells, Jurkat cells = assay: Caspase dependence of BH3I-induced cell death (zVAD-fmk); type: cell-based; settings: Hoechst dye
Procedure: FIG. 10A is a graph showing the comparison of BH3Is and Bax induced cell death. HeLa cells were transfected with YFP-Bax and pEYFP-C 1 for 48 hr in the absence (open bars) or presence (closed bars) of 100 μM zVAD-fmk. YFP transfected cells were also treated with BH3I-1 (100 μM) or BH3I-2 (50 μM) for 48 hours. Cell viability was determined by propidium iodide (PI) staining and microscopic examination of PI/YFP positive cells. Numbers represent the percentage of PI positive cells in the YFP positive population. The values of standard deviation are also shown.
FIG. 10B is a graph showing the attenuation of BH3Is' cytotoxicities by the pan-caspase inhibitor zVAD-fmk. Jurkat cells were treated with BH3I-1 or BH3I-2 in the presence (open bars) or absence (closed bars) of 100 μM zVAD-fmk (Alexis) for 48 hr. Cell death was determined using an MTS assay. Numbers represent the percentages of cell death, normalized relative to a DMSO treated control, which was set at 100% viability. Standard deviation values are also shown.
FIG. 10C is a set of images of cells showing that nuclear fragmentation, but not cytochrome c release, induced by BH3Is, requires caspases. […]
FIG. 10D-1-10D-6 are a series of graphs showing DNA fragmentation analysis of Jurkat cells treated with BH3Is and zVAD-fmk. […] Samples were analyzed by FACS, and the percentage of subG1 DNA is shown for each sample. […]

[3] = MTS assay and PI uptake, rank order

Row | Compound | order of affinities of BH3Is [1] | order of decreasing affinity, fluorescence polarization assays [1] | relative order of affinities, NMR titrations (Bcl-xL) | cellular ATP levels (HeLa cells) | cellular ATP levels [2] | order of cytotoxicity (Jurkat cells; [3]) | order of cytotoxicity (Jurkat cells) | protection from BH3I-induced nuclear fragmentation (HeLa cells, Jurkat cells)
1 | CC(C)C(C(=O)O)N1C(=O)/C(=C/c2ccc(Cl)cc2)SC1=S (stereo not shown) [BH3I-1′] | BH312′>BH3I-2>BH3I-2″>BH3I-1>BH3I-1′>BH3I-1″>BH3I-1′″ | BH3I-1>BH3I-1′>BH3I-2′>BH3I-2>BH3I-2″>BH3I-1″ | BH3I-1>BH3I-1′>BH3I-1″>BH3I-1′″ | cellular ATP levels decreased | cellular ATP levels decreased | BH3I-2′>BH3I-2>BH3I-2″>BH3I-1>BH3I-1′>BH3I-1″>BH3I-1′″ |  | 
2 | CC(C)C(C(=O)O)N1C(=O)/C(=C/c2ccc(N(C)C)cc2)SC1=S (stereo not shown) [BH3I-1′″] | BH312′>BH3I-2>BH3I-2″>BH3I-1>BH3I-1′>BH3I-1″>BH3I-1′″ |  | BH3I-1>BH3I-1′>BH3I-1″>BH3I-1′″ |  |  |  | BH3I-2′>BH3I-2>BH3I-2″>BH3I-1>BH3I-1′>BH3I-1″>BH3I-1′″ | 
3 | O=C(Nc1cc(S(=O)(=O)c2ccc(Cl)cc2)ccc1Cl)c1cc(Cl)cc(I)c1O [BH3I-2′] | BH312′>BH3I-2>BH3I-2″>BH3I-1>BH3I-1′>BH3I-1″>BH3I-1′″ | BH3I-1>BH3I-1′>BH3I-2′>BH3I-2>BH3I-2″>BH3I-1″ |  |  |  | BH3I-2′>BH3I-2>BH3I-2″>BH3I-1>BH3I-1′>BH3I-1″>BH3I-1′″ |  | 
4 | O=C(Nc1cc(S(=O)(=O)c2ccc(Cl)cc2)ccc1Cl)c1cc(I)cc(I)c1O [BH3I-2″] | BH312′>BH3I-2>BH3I-2″>BH3I-1>BH3I-1′>BH3I-1″>BH3I-1′″ | BH3I-1>BH3I-1′>BH3I-2′>BH3I-2>BH3I-2″>BH3I-1″ |  |  |  | BH3I-2′>BH3I-2>BH3I-2″>BH3I-1>BH3I-1′>BH3I-1″>BH3I-1′″ |  | 
5 | COC(=O)C[C@H](NC(=O)[C@H](C)NC(=O)[C@@H](NC(=O)OCc1ccccc1)C(C)C)C(=O)CF [zVAD-fmk] (Cbz-Val-Ala-Asp(OMe)-CH2F) |  |  |  |  |  |  |  | completely protected cells from BH3I-induced nuclear fragmentation
